Measured values as given in US6369035B1, “3,6-hemiketals from the class of 9A-azalides” (Pliva, farmaceutska industrja, dionicko …, priority 1997, dated 2002).
Converted amounts (≈) assume the structure as drawn. Where two headings read alike, the source gives them in different places. Blank lines part the entries; values can stand above or below the molecule they belong to.

Experiments:
[1] = tested on: Haemophilus influenzae clinical isolates (40); experiment: Antibacterial in vitro activity, MIC, clinical isolates; format: cell-based; conditions: 40 clinical isolates
Description: (§1) Antibacterial in vitro activity of the novel compounds of the general formula (I) and their pharmaceutically acceptable addition salts with inorganic or organic acids on a series of standard test-microorganisms was determined in a Mueller-Hinton medium (Difco-Laboratories, Detroit, Mich.) by a conventional method of double dilution in accordance with recommendations of NCCLS (The National Committee for Clinical Laboratory Standards). Each test microorganism was inoculated to the final inoculum size of 5×10^5 cfu/ml and the incubation was carried out in an […] manner at 37° C. during 18 hours. The MIC in the liquid medium was defined as the lowest concentration of an antibacterial agent inhibiting visible growth in microdilutional containers. Control organisms were obtained from ATCC (The American Type Culture Collection). All standards were identified by a standard procedure and were storaged at −70° C.

[2] = tested on: Enterococcus sp. clinical isolates (35); experiment: as above; format: cell-based; conditions: 35 clinical isolates
Description: as §1

[3] = tested on: S. epidermidis clinical isolates (20); experiment: as above; format: cell-based; conditions: 20 clinical isolates
Description: as §1

[4] = tested on: Staph. aureus. clinical isolates (77); experiment: as above; format: cell-based; conditions: 77 clinical isolates
Description: as §1

[5] = tested on: Streptococcus pneumoniae clinical isolates (25); experiment: as above; format: cell-based; conditions: 25 clinical isolates
Description: as §1

M. luteus ATCC 9341 = experiment: Antibacterial in vitro activity, MIC by double dilution, standard strains; format: cell-based; conditions: 37° C., 18 hours
Description: as §1

[6] = tested on: Bacillus subtilis ATCC 6633; experiment: as above; format: cell-based; conditions: 37° C., 18 hours
Description: as §1

[7] = tested on: Escherichia coli ATCC 10536; experiment: as above; format: cell-based; conditions: 37° C., 18 hours
Description: as §1

[8] = tested on: S. eperidermidis ATCC 12228; experiment: as above; format: cell-based; conditions: Mueller-Hinton medium, 37° C., 18 hours
Description: as §1

S. aureus ATCC 29213 = experiment: as above; format: cell-based; conditions: 37° C., 18 hours
Description: as §1

[9] = tested on: Streptococcus faecalis ATCC 8043; experiment: as above; format: cell-based; conditions: 37° C., 18 hours
Description: as §1

[10] = tested on: Staphylococcus aureus ATCC 6538 P; experiment: as above; format: cell-based; conditions: 37° C., 18 hours
Description: as §1

[11] = tested on: Micrococcus flavus ATCC 10240; experiment: as above; format: cell-based; conditions: 37° C., 18 hours
Description: as §1

B. cereus ATCC 11778 = experiment: as above; format: cell-based; conditions: 37° C., 18 hours
Description: as §1

[12] = rat, in vivo, po, 20 mg/kg

Structure (SMILES): CC[C@H]1OC(=O)[C@H](C)[C@@H](O[C@H]2C[C@@](C)(OC)[C@@H](O)[C@H](C)O2)[C@H](C)[C@@H](O[C@@H]2O[C@H](C)C[C@H](N(C)C)[C@H]2O)[C@](C)(O)C[C@@H](C)CN(C)[C@H](C)[C@@H](O)[C@]1(C)OC [12-O-Methyl-azithromycin]
MIC 50% [1]: 0.12 µg/mL (≈ 0.157 µM)
MIC 90% [1]: 0.25 µg/mL (≈ 0.328 µM)
MIC Range [1]: 0.06 to 0.5 µg/mL
MIC 50% [2]: 0.5 µg/mL (≈ 0.655 µM)
MIC 90% [2]: 8 µg/mL (≈ 10.5 µM)
MIC Range [2]: 0.12 to 8 µg/mL
MIC 50% [3]: 0.25 µg/mL (≈ 0.328 µM)
MIC 90% [3]: 4 µg/mL (≈ 5.24 µM)
MIC Range [3]: 0.12 to 8 µg/mL
MIC 50% [4]: 0.25 µg/mL (≈ 0.328 µM)
MIC 90% [4]: 1 µg/mL (≈ 1.31 µM)
MIC Range [4]: 0.12 to 2 µg/mL
MIC 50% [5]: 0.03 µg/mL (≈ 0.0393 µM)
MIC 90% [5]: 0.12 µg/mL (≈ 0.157 µM)
MIC Range [5]: 0.03 to 0.12 µg/mL
MIC (M. luteus ATCC 9341; Mueller-Hinton medium): 0.03 µg/mL (≈ 0.0393 µM)
MIC ([6]; Mueller-Hinton medium): 1 µg/mL (≈ 1.31 µM)
MIC ([7]; Mueller-Hinton medium): 0.5 µg/mL (≈ 0.655 µM)
MIC [8]: 0.03 µg/mL (≈ 0.0393 µM)
MIC (S. aureus ATCC 29213; Mueller-Hinton medium): 0.25 µg/mL (≈ 0.328 µM)
MIC ([9]; Mueller-Hinton medium): 0.25 µg/mL (≈ 0.328 µM)
MIC ([10]; Mueller-Hinton medium): 0.25 µg/mL (≈ 0.328 µM)
MIC ([11]; Mueller-Hinton medium): 0.12 µg/mL (≈ 0.157 µM)
MIC (B. cereus ATCC 11778; Mueller-Hinton medium): 0.25 µg/mL (≈ 0.328 µM)
Cmax (maximum substance concentration in serum) [12]: 248.8 ng/mL
absorption in the serum [12]: very fast absorbed
half-life [12]: 5.2 h
time at which the maximum substance concentration was achieved [12]: 2 h
time of secondary maximum after the application [12]: 4 h
total AUC [12]: 1993.4 ng·h/mL

MIC50 [1]: 0.25 µg/mL (≈ 0.334 µM)
MIC90 [1]: 0.5 µg/mL (≈ 0.668 µM)
MIC Range [1]: 0.12 to 0.5 µg/mL
MIC50 [2]: 1 µg/mL (≈ 1.34 µM)
MIC90 [2]: 16 µg/mL (≈ 21.4 µM)
MIC Range [2]: 0.25 to 16 µg/mL
MIC Range [3]: 0.25 to 16 µg/mL
MIC50 ([3]; Staphylococcus epidermidis): 0.25 µg/mL (≈ 0.334 µM)
MIC90 ([3]; Staphylococcus epidermidis): 8 µg/mL (≈ 10.7 µM)
MIC Range [4]: 0.25 to 8 µg/mL
MIC50 ([4]; Staphylococcus aureus): 1 µg/mL (≈ 1.34 µM)
MIC90 ([4]; Staphylococcus aureus): 4 µg/mL (≈ 5.34 µM)
MIC50 [5]: 0.05 µg/mL (≈ 0.0668 µM)
MIC90 [5]: 0.12 µg/mL (≈ 0.16 µM)
MIC Range [5]: 0.03 to 0.25 µg/mL
MIC (M. luteus ATCC 9341; Micrococcus luteus, ATCC9341, Mueller-Hinton medium, read-out: MIC): 0.06 µg/mL (≈ 0.0801 µM)
MIC ([6]; ATCC6633, Mueller-Hinton medium, read-out: MIC): 4 µg/mL (≈ 5.34 µM)
MIC ([7]; ATCC10536, Mueller-Hinton medium, read-out: MIC): 1 µg/mL (≈ 1.34 µM)
MIC ([8]; read-out: MIC): 0.5 µg/mL (≈ 0.668 µM)
MIC (S. aureus ATCC 29213; Staphylococcus aureus, ATCC29213, Mueller-Hinton medium, read-out: MIC): 0.25 µg/mL (≈ 0.334 µM)
MIC ([9]; Enterococcus faecalis, ATCC8043, Mueller-Hinton medium, read-out: MIC): 0.5 µg/mL (≈ 0.668 µM)
MIC ([10]; ATCC6538, Mueller-Hinton medium, read-out: MIC): 1 µg/mL (≈ 1.34 µM)
MIC ([11]; ATCC10240, Mueller-Hinton medium, read-out: MIC): 0.5 µg/mL (≈ 0.668 µM)
MIC (B. cereus ATCC 11778; Bacillus cereus, ATCC11778, Mueller-Hinton medium, read-out: MIC): 1 µg/mL (≈ 1.34 µM)
Structure (SMILES): CC[C@H]1OC(=O)[C@H](C)[C@@H](O[C@H]2C[C@@](C)(OC)[C@@H](O)[C@H](C)O2)[C@H](C)[C@@H](O[C@@H]2O[C@H](C)C[C@H](N(C)C)[C@H]2O)[C@](C)(O)C[C@@H](C)CN(C)[C@H](C)[C@@H](O)[C@]1(C)O [Azithromycin, 9-deoxo-9a-methyl-9a-aza-9a-homoerythromycin, reference compound]
